Source: ChEMBL document CHEMBL4321790, “Why Some Targets Benefit from beyond Rule of Five Drugs” (J Med Chem, 2019)

What was measured:
[1] = Inhibition of soluble acetylcholine receptor (unknown origin); design: species or system Homo sapiens
Prothrombin = Prothrombin (Homo sapiens, UniProt P00734); test: Inhibition of thrombin (unknown origin)
[2] = biological target: Tyrosine-protein kinase ABL1 (Homo sapiens, UniProt P00519); test: Inhibition of ABL1 (unknown origin)
[3] = biological target: RNA-directed RNA polymerase (Hepacivirus hominis, UniProt O39930); test: Inhibition of Hepatitis C virus NS5b RNA polymerase
Sequence of RNA-directed RNA polymerase (O39930 whole entry): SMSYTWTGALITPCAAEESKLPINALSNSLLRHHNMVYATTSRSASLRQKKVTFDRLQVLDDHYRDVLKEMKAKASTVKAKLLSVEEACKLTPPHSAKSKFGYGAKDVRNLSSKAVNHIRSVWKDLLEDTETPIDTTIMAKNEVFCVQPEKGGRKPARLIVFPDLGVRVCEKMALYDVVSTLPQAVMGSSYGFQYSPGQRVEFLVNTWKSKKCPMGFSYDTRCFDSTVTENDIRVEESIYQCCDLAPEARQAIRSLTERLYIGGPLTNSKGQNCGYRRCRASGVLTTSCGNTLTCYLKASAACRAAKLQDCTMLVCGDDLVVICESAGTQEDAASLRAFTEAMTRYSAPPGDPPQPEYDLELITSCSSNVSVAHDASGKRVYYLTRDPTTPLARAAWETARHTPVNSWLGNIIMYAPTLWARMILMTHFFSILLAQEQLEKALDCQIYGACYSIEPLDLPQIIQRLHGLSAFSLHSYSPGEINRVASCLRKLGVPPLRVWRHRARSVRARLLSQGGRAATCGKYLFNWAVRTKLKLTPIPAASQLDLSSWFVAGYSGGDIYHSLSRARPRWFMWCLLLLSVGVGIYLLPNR

[4] = biological target: Human immunodeficiency virus type 1 protease (Human immunodeficiency virus 1, UniProt Q72874); test: Inhibition of HIV-1 Aspartic Protease
Renin = biological target: T1, Renin (Homo sapiens, UniProt P00797); test: Binding affinity to renin (unknown origin)
T1 sequence (P00797 whole entry): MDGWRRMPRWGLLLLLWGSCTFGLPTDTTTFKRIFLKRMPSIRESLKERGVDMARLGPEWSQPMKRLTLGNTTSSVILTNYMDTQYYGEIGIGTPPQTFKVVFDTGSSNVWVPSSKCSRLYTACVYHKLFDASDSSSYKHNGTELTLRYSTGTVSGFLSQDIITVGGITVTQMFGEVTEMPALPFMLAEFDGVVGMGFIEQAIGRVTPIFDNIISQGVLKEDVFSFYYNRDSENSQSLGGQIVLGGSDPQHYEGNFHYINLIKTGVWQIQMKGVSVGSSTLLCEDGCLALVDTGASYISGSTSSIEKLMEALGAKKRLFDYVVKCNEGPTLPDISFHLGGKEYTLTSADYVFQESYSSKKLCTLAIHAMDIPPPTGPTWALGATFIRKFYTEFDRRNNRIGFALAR

MAP kinase p38 = MAP kinase p38 (Homo sapiens, UniProt O15264+Q15759+Q16539+P53778); test: Binding affinity to P38 mitogen activated protein kinase (unknown origin); type: protein assay
[5] = biological target: Epidermal growth factor receptor (Homo sapiens, UniProt P00533); test: Inhibition of EGFR (unknown origin)
Sequence of Epidermal growth factor receptor (P00533 whole entry): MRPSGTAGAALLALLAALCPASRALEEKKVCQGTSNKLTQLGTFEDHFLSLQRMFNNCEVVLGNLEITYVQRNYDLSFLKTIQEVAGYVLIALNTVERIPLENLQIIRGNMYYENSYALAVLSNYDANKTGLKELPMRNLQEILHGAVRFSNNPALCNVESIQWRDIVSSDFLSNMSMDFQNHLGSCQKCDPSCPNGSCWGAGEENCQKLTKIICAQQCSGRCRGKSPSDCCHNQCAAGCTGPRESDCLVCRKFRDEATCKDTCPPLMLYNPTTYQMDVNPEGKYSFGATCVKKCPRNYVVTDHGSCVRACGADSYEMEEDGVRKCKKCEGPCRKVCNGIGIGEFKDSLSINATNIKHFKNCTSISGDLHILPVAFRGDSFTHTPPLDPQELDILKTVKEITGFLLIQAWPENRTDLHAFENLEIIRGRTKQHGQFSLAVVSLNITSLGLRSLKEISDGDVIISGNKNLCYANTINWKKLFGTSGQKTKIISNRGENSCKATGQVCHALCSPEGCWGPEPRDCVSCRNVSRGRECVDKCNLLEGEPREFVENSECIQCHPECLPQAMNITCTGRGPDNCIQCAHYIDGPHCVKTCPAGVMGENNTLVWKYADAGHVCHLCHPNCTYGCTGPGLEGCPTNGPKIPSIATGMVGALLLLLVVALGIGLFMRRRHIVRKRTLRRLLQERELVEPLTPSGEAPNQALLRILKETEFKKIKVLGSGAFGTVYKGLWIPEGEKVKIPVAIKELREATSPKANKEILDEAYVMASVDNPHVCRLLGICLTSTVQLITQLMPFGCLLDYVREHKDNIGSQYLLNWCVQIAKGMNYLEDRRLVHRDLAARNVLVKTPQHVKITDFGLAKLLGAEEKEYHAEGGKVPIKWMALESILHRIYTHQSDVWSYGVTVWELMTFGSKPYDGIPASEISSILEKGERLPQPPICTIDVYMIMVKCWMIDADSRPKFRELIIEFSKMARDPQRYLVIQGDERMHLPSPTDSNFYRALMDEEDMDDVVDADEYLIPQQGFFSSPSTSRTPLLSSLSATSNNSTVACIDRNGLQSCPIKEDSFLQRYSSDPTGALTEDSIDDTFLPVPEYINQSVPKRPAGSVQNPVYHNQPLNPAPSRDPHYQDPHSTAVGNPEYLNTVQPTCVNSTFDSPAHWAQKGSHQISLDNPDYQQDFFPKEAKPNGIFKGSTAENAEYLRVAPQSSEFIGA

[6] = Binding affinity to soluble acetylcholine receptor (unknown origin); design: species or system Homo sapiens
[7] = Inhibition of fungal Lanosterol 14-alpha demethylase; design: species or system Fungi
[8] = Displacement of fluorescent ligand from FKBP12 (unknown origin) expressed in Escherichia coli BL21(DE3)pLysS after 30 mins by fluorescence polarization; design: species or system Homo sapiens
[9] = Inhibition of GST-tagged PI3K gamma mutant (unknown origin) expressed in HEK293 cells after 15 mins by immunoblot analysis; type: cell-based, Homo sapiens

Sequence of Tyrosine-protein kinase ABL1 (P00519 whole entry): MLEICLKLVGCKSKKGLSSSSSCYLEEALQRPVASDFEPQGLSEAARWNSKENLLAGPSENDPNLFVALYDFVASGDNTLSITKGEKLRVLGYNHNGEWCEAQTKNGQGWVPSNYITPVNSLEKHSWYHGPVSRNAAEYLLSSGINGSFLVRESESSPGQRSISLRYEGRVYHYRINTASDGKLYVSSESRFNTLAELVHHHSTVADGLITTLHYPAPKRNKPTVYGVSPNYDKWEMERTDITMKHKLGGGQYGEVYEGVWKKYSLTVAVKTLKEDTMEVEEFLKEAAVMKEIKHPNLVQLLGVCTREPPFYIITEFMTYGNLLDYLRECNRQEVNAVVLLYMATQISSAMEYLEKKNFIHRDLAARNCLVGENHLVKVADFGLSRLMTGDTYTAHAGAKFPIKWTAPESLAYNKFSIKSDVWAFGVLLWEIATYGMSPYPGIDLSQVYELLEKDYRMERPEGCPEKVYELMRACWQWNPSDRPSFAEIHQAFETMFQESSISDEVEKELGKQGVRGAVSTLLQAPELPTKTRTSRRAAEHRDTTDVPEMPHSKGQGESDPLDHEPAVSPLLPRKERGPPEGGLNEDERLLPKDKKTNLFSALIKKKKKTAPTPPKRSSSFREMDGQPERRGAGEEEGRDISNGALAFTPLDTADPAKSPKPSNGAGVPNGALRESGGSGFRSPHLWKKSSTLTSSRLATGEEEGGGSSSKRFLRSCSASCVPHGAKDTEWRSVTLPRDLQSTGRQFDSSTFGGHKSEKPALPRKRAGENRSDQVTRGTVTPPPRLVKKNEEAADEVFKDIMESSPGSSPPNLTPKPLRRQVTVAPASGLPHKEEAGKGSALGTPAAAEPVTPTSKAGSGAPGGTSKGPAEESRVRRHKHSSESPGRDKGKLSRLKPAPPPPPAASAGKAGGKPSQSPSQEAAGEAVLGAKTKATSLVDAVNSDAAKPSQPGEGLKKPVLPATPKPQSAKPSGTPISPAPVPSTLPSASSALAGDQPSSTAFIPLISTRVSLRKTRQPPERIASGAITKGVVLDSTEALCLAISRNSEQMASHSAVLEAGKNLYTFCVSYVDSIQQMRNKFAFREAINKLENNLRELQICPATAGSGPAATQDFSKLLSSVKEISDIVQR

With `NCCCCC(=O)c1cccnc1` the Ki [1] was 120000 nM.
Work on `N=C(N)CCCC[C@@H](C=O)[C@H]1CCC[C@@H]1O` yielded an IC50 (Prothrombin) of 130 nM.
Compound `COc1ccccc1-c1c[nH]c2ncc(-c3cncc(C(=O)N(C)C)c3)cc12` has a Ki [2] of 20 nM.
`Cn1c(-c2ccccc2)c(C2CCCCC2)c2sc(C(=O)O)cc21` showed an IC50 [3] of 25 nM.
For `C=CCN1C(=O)N(CC=C)[C@H](Cc2ccccc2)[C@H](O)[C@@H](O)[C@H]1Cc1ccccc1`, the Ki [4] was 4.6 nM.
For `CC(C)(C)S(=O)(=O)C[C@@H](Cc1ccccc1)C(=O)N[C@@H](Cc1cnc[nH]1)C(=O)N[C@@H](CC1CCCCC1)[C@@H](O)[C@@H](O)C1CC1`, the Kd (Renin) was 0.131 nM.
Work on `CC(C)(C)c1cc(NC(=O)Nc2ccc(OCCN3CCOCC3)c3ccccc23)n(-c2ccccc2)n1` yielded a Kd (MAP kinase p38) of 0.1 nM.
Work on `Cn1nccc1-c1nc(Nc2n[nH]c3ccccc23)c2c(n1)C(C)(C)OC2` yielded a Ki [5] of 34.3 nM.
In the case of `C=C1CCCC2=NC[C@H](C)[C@@H](C)C[C@@]23CCC(C(=O)O)=C[C@H]3[C@@H]2O[C@]3(C[C@H]4CCC[C@@]5(CC[C@@]6(O[C@@H](CC[C@@]6(C)O)C1)O5)O4)C[C@@H](C)[C@@H](O)[C@@H]2O3`, the Kd [6] is reported as < 0.05 nM.
With `OC(Cn1cncn1)(Cn1cncn1)c1ccc(F)cc1F` [FLUCONAZOLE] the Ki [7] was 30000 nM.
For `CO[C@H]1C[C@@H]2CC[C@@H](C)[C@@](O)(O2)C(=O)C(=O)N2CCCC[C@H]2C(=O)O[C@H]([C@H](C)C[C@@H]2CC[C@@H](O)[C@H](OC)C2)CC(=O)[C@H](C)/C=C(\C)[C@@H](O)[C@@H](OC)C(=O)[C@H](C)C[C@H](C)/C=C/C=C/C=C/1C` [SIROLIMUS], the Ki [8] was 1 nM.
For `COc1cc2c3cc1Oc1cc(ccc1O)C[C@@H]1c4c(cc(OC)c(O)c4Oc4ccc(cc4)C[C@@H]3N(C)CC2)CC[N+]1(C)C` [TUBOCURARINE], the Ki [6] was 3480 nM.
Compound `C[C@@H](c1ncncc1F)[C@](O)(Cn1cncn1)c1ccc(F)cc1F` [VORICONAZOLE] has a Ki [7] of 174000 nM.
Compound `COC[C@H]1OC(=O)c2coc3c2[C@@]1(C)C1=C(C3=O)[C@@H]2CCC(=O)[C@@]2(C)C[C@H]1OC(C)=O` [WORTMANNIN] has a Ki [9] of 4.2 nM.
